Measured values reported in patent US20110039784A1, “COMPOSITION FOR TREATMENT OF ERECTILE DYSFUNCTION” (SUNGKYUNKWAN UNIVERSITY Foundation for Corporate …, priority 2009, published 2011).
Residue numbers refer to the chain shown, from its start. Ends that are not written are not given here.

What was measured:
[1] = molecular target: T1, TRPC6 ion channel (Mus musculus, UniProt Q61143); test: Whole-cell patch clamp in HEK 293 cells transfected with wild-type TRPC6; assay type: cell-based; conditions: for whole-cell current at −100 mV: TRPC6-transfected HEK cells, n=5; for change of whole-cell current on application: membrane potential held at −60 mV, symmetrical 140 mM Cs, 200 μM PE or 100 μM CCh
T1 construct: expressed in transfected cells; host or cells: HEK 293
T1 sequence (Q61143 1-930): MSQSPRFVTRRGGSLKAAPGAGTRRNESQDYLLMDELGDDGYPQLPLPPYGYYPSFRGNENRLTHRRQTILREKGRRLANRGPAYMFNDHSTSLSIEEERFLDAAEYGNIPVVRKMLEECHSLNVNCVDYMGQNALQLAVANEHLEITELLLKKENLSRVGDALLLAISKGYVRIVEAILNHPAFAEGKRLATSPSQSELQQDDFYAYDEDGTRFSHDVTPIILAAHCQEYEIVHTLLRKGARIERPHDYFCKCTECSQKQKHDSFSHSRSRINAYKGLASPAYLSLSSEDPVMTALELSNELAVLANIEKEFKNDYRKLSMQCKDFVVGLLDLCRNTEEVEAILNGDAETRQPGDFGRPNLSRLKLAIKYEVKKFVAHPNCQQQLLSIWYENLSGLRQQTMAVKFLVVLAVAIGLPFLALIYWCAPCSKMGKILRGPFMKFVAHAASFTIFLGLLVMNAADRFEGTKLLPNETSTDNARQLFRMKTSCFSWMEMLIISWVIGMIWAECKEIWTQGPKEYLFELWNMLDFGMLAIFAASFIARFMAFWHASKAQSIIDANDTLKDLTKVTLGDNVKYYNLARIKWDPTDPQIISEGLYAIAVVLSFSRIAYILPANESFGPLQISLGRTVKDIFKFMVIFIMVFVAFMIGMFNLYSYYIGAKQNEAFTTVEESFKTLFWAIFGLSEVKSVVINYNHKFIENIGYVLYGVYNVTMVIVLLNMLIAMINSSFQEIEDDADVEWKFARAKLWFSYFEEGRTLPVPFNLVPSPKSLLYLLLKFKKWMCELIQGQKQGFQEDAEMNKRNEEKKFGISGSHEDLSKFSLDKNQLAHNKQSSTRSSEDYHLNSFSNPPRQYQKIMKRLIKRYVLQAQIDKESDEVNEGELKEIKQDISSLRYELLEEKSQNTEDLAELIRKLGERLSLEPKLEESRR
Description: The physiological function of the TRPC6 ion channel was examined in HEK cells which are free of ion channels. In this regard, GFP-TRPC6 pcDNA was transfected into HEK cells using a liposome and expressed therein. After the membrane potential was held at −60 mV, whole-cell currents were recorded in symmetrical 140 mM Cs conditions. […] At −100 mV, the current was −112.0±18.1 pA (n=5) in a 140 mM extracellular Cs condition, −90.0±15.0 pA (n=5) after adding 200 μM PE, and −460±169.5 pA (n=5) after adding 100 μM CCh. […] The PE/CCh-induced current was obtained after leak subtraction was performed (FIG. 3C).

[2] = molecular target: T2, TRPC6 ion channel (Mus musculus, UniProt Q61143); test: Whole-cell patch clamp in human corporal smooth muscle cells transfected with wild-type or dominant negative TRPC6; assay type: cell-based; conditions: after ET-1, 1 mM La^3+
T2 construct: expressed in transfected cells; host or cells: human corporal smooth muscle cells
T2 sequence (Q61143 1-930 A105V/R114W/A184S/Y371D/R436P/G437R/T905S): T1 sequence (Q61143 1-930) with A105V, R114W, A184S, Y371D, R436P, G437R, T905S
Description: As described with HEK cells, the wild-type TRPC6 cDNA was expressed. After being selected, green-fluorescent cells were examined for the activity of the ion channel using a whole-cell patch clamp technique. At the −60 mV holding membrane potential with the external solution changed from Na-rich normal tyrode solution to 140 mM Cs, the inward current was increased; whereas no currents changed upon external treatment with ET-1, a typical inducer of smooth muscle contraction. At −100 mV, the current was −535.9±162.4 pA (n=5) in 140 mM extracellular Cs, and −462.1±150.5 pA (n=5) after adding 100 nM ET-1. The current-voltage (I-V) relationship of corporal smooth muscle cells was similar to that of HEK cells activated by CCh. […] (FIG. 4)
For genetic regulation of the TRPC6 ion channel in corporal smooth muscle cells, the cells transfected with the dominant negative form of the TRPC6 ion channel were examined for electrophysiological function.

[3] = tested on: maxi-K ion channel; test: Whole-cell patch clamp in human corporal smooth muscle cells expressing rslo gene; assay type: cell-based, rat; conditions: rslo-expressed human corporal smooth muscle cells
Excerpt: As described with HEK cells, the rslo pcDNA was expressed. The ion channels were examined for activity using a whole-cell patch clamp technique. Under the condition of a pipette solution having a calcium concentration of pCa 6.5, the current was 60.1±7.2 pA/pF (n=22) at a membrane potential of +60 mV in the rslo-expressed cells, which increased in outward current four-fold compared to that of control (16.4±2 pA/pF n=9) (FIG. 9A). Under the condition of an intracellular calcium concentration of pCa 7, the current was 12.8±2 pA/pF (+60 mV, n=9) in the control and 38.1±7 pA/pF (+60 mV, n=13) in the rslo-expressed cells (FIG. 9B). […] The current-voltage (I-V) relationship was similar to that recorded in the HEK cells.

[4] = molecular target: T3, maxi-K ion channel (Rattus norvegicus, UniProt Q62976); test: Whole-cell patch clamp in HEK 293 cells expressing rslo gene; assay type: cell-based; conditions: rslo-expressed HEK cells
T3 construct: GFP; expressed in transfected cells; host or cells: HEK 293
Excerpt: The maxi-K ion channel is known to play an important role in reducing the contraction of smooth muscle responsible for the modulation of penile erection and relaxation. Together with GFP, the α-subunit (rSlo) coding sequence of calcium-dependent potassium ion channel cloned from the rat brain was subcloned into pcDNA3.1(+). After the expression of rSlo gene in HEK cells, green-fluorescent cells were selected under a mercury lamp light and observed for the electrophysiological properties of the ion channels using a whole-cell patch clamp technique. Cells were used within 24˜48 hrs after expression. […] At an intracellular calcium level of pCa 7, the current was read 10.4±3.2 pA/pF (+60 mV, n=6) in the control and 100.5±15.4 pA/pF (n=6) in the rslo-expressed cells (FIG. 8B).

[5] = tested on: corporal smooth muscle cells; test: Fura-2 intracellular calcium level in cultured corporal smooth muscle cells, ET-1 induced; assay type: cell-based, human; conditions: control corporal smooth muscle cells, n=3
Description: After fura-2 was loaded thereto, cultured corporal smooth muscle cells were measured for intracellular calcium levels. The extracellular addition of 50 nM endothelin-1 induced an increase in intracellular calcium level, with the separation of an initial increasing phase and a late constant phase (FIG. 7A).
Between the TRPC6 cDNA-transfected cells and the control cells, there are little differences in the initial phase. […] Intracellular calcium levels were also measured in the corporal smooth muscle cells where the dominant negative form of TRPC6 was expressed. […] Collectively, F340/380, accounting for ET-1-induced calcium increase, was measured to be 1.47±0.03 (n=3) in corporal smooth muscle cells (control), 1.53±0.09 (n=3) in corporal smooth muscle cells where TRPC6 was overexpressed, and 0±0 (n=3) in corporal smooth muscle cells where the dominant negative form of TRPC6 was expressed (FIG. 7D).

T3 sequence (Q62976 whole entry): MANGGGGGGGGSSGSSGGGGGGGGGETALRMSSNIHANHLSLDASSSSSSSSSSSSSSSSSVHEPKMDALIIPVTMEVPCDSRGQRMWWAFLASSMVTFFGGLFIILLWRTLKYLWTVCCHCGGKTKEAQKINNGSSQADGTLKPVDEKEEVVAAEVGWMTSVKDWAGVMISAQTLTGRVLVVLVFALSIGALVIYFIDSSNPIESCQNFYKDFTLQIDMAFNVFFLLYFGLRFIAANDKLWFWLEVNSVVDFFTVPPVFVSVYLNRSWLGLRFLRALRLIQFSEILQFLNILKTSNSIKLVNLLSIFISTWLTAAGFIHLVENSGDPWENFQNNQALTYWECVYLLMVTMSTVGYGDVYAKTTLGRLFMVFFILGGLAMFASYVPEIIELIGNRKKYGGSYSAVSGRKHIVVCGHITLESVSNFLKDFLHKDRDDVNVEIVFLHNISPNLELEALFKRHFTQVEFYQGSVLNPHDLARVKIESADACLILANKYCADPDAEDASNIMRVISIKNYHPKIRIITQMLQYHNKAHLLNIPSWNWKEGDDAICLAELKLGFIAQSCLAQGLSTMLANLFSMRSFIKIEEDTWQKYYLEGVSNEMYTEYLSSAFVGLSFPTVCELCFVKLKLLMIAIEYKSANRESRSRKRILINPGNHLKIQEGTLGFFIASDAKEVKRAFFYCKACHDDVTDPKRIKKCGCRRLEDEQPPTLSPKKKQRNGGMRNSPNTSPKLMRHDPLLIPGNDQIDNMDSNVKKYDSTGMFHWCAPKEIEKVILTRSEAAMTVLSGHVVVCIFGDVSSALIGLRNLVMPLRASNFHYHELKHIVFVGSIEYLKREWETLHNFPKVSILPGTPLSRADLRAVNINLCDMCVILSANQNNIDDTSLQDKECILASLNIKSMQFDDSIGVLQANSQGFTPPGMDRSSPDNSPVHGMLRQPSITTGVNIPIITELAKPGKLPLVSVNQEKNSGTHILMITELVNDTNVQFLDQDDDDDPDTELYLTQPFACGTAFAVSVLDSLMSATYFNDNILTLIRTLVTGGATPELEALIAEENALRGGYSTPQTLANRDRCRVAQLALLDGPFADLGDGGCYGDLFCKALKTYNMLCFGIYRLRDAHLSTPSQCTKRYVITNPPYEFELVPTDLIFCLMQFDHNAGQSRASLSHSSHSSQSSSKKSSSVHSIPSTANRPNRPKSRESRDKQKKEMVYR

## C[N+](C)(C)CCOC(N)=O [CCh, carbachol]
[1]; after adding 100 μM CCh
  whole-cell current at −100 mV: −460±169.5 pA
[1]
  change of whole-cell current on application: increased inward currents

## [La+3] [La^3+]
[2]
  effect on current: completely decreased

## CNC[C@H](O)c1cccc(O)c1 [PE, phenylephrine]
[1]; after adding 200 μM PE
  whole-cell current at −100 mV: −90.0±15.0 pA
[1]
  change of whole-cell current on application: nearly no currents changed

## CC[N+](CC)(CC)CC [TEA]
[3]
  effect on outward current: decreased in a dose-dependent manner
[4]
  effect on outward current: decreased in a dose-dependent manner

## endothelin-1 (CSCSSLMDKECVYFCHLDIIW; ends and bridges not checked; cysteine pairing not given here; UniProt P05305 53-73, looked up) [ET-1, a typical inducer of smooth muscle contraction]
[5]
  F340/380, accounting for ET-1-induced calcium increase: 1.47±0.03
